From patent US10125150B2, “Crystalline forms of a PI3K inhibitor” (Incyte Corporation, priority 2015, dated 2018) come the findings set out here.

Data set [1] is described as follows: Dynamic Vapor Sorption (DVS), moisture adsorption/desorption. The class given is physicochemical. The conditions noted are these: 25° C. On the procedure: Dynamic Vapor Sorption (DVS) was performed in an SGA-100 Symmetric Vapor Sorption Analyzer from VTI Corporation. The moisture uptake profile was completed in three cycles in 10% RH increments with the first adsorption from 25% to 95% RH, followed by desorption in 10% increments from 95% to 5% RH. The equilibration criteria were 0.0050 wt % in 5 minutes with a maximum equilibration time of 180 minutes. All adsorption and desorption were performed at room temperature (25° C.). No pre-drying step was applied for the sample.
Moisture adsorption/desorption of Form I was analyzed by DVS. […] The shapes of the isotherms indicate weak adsorbent-adsorbate interaction and a low moisture uptake at low vapor concentration.

The nature of data set [2]: Competitive slurry experiments (stability of the crystalline forms), solid characterized by XRPD. The class given is physicochemical. The settings on record: 50° C. On the procedure:
Forms I and X of the compound of Formula I were slurried together in a methanol-ethyl acetate (1:10) solvent system and heated at 50° C. for 5 days. Specifically, 5 mL of ethyl acetate and 0.5 mL of methanol were combined and heated to 50° C. Form I (from Example 1) was added to the solvent mixture until a cloudy solution formed (about 156 mg), and then additional Form I was added (about 50 mg). Then 50 mg of Form X (prepared as described in Example 12) was added. The mixture was stirred at 50° C. for 5 days and the solid was characterized and monitored by XRPD.
Forms I to XIII of the compound of Formula I were slurried together in a methanol-ethyl acetate (1:10) solvent system at room temperature for 8 days. Specifically, 10 mg of Form I (from Example 1) was added to 1 mL of ethyl acetate with stirring. Then 0.1 mL of methanol was added giving a cloudy solution to which 3 mg of additional Form I (from Example 1) was added. […]
Forms I and X of the compound of Formula I were slurried together in acetone and heated at 50° C. overnight. […] The mixture was stirred at 50° C. overnight and the solid was characterized and monitored by XRPD.
Forms I to XIII of the compound of Formula I were slurried together in acetone at room temperature for 11 days. […] The mixture was stirred at room temperature for 11 days and the resulting solid was characterized and monitored by XRPD.

`Cc1csc2nc([C@H](C)Nc3ncnc4[nH]cnc34)c(-c3cccc(F)c3)c(=O)n12` [Form I, (S)-7-(1-(9H-purin-6-ylamino)ethyl)-6-(3-fluorophenyl)-3-methyl-5H-thiazolo[3,2-a]pyrimidin-5-one]: the “initial water content (DVS)” value in data set [1] (no pre-drying) is on record as “about 0.3%”. For the same compound, the “water adsorption (DVS)” value in data set [1] (at 85% RH) worked out at 1.8%. Also, the resulting crystalline form is “predominantly Form X” in data set [2] (Forms I and X slurried in acetone, overnight); “predominantly Form I” in data set [2] (Forms I and X slurried in methanol-ethyl acetate (1:10), 5 days).
